# PMC9181126, “Design, Synthesis, Molecular Docking Analysis and Biological Evaluations of 4-[(Quinolin-4-yl)amino]benzamide Derivatives as Novel Anti-Influenza Virus Agents” (International Journal of Molecular Sciences, 2022)
# What was measured:
# [1] = target: ribonucleoprotein (RNP) of influenza virus (Influenza A virus, UniProt P15659); assay: cell-based; conditions: HEK-293T, read-out: RNP Reconstitution Assay Inhibition Rate; for inhibition at 12.5 µM: concentration 12.5 µM; for inhibition at 100 µM: concentration 100 µM
# [2] = system: influenza virus A/WSN/33 (H1N1); assay: microbe, parasite or virus in culture; assay type: cell-based; conditions: MDCK, 72 h; for inhibition at 12.5 µM / inhibition at 25 µM / inhibition at 50 µM / inhibition at 100 µM: H1N1|WSN, read-out: Antiviral activity in CPE assay; for EC50: read-out: Cytopathic Effect Assay (A/WSN/33, H1N1) EC50
# [3] = system: influenza virus A/WSN/33 (H1N1); assay: Plaque inhibition assay in MDCK cells; assay type: cell-based; conditions: for inhibition at 100 µM: concentration 100 µM
# HEK293T cells = assay: in vitro; assay type: cell-based; conditions: human, 72 h
# Outline: (§1)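 Cells were seeded and compound medium added after 48 h, then incubated 72 h at 37 °C, 5% CO2. Viability was measured by MTT (4 h), then solubilization and absorbance at 620 nm after a further 3 h. DMSO-only wells were taken as 100% viable.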
# in vitro [4] = assay type: cell-based; conditions: human
# Outline: as §1
# MDCK cells = assay: in vitro; assay type: cell-based, canine; conditions: dog, 72 h
# Outline: as §1
# in vitro [5] = assay type: cell-based, canine; conditions: dog
# Outline: as §1
# A/HK/68 (H3N2) = assay: Plaque inhibition assay in MDCK cells; assay type: cell-based; conditions: Influenza A virus
# A/PR/8 (H1N1) = assay: Plaque inhibition assay in MDCK cells; assay type: cell-based; conditions: Influenza A virus
# influenza B virus = assay: Plaque inhibition assay in MDCK cells; assay type: cell-based
# [6] = MDCK, read-out: Plaque Inhibition Assay (A/WSN/33, H1N1) Inhibition Rate
Structure (SMILES),melting point [°C],inhibition at 12.5 µM [2] [%],inhibition at 25 µM [2] [%],inhibition at 50 µM [2] [%],inhibition at 100 µM [2] [%],EC50 [2] [µM],"inhibition at 100 µM [3, 6] [%]",HEK293T cells survival rate (HEK293T cells; 3.125 µmol·L−1) [%],HEK293T cells survival rate (HEK293T cells; 6.25 µmol·L−1) [%],HEK293T cells survival rate (HEK293T cells; 12.5 µmol·L−1) [%],HEK293T cells survival rate (HEK293T cells; 25 µmol·L−1) [%],HEK293T cells survival rate (HEK293T cells; 50 µmol·L−1) [%],HEK293T cells survival rate (HEK293T cells; 100 µmol·L−1) [%],CC50 at 72 h (in vitro [4]) [µM],MDCK cells survival rate (MDCK cells; 12.5 µmol·L−1) [%],MDCK cells survival rate (MDCK cells; 25 µmol·L−1) [%],MDCK cells survival rate (MDCK cells; 50 µmol·L−1) [%],MDCK cells survival rate (MDCK cells; 100 µmol·L−1) [%],CC50 at 72 h (in vitro [5]) [µM],inhibition at 100 µM [1] [%],also measured
"O=C(c1ccc(Nc2ccnc3cc(C(F)(F)F)ccc23)cc1)N1CCN(c2ccc(Cl)cc2)CC1 [Compound G17, [4-(4-Chlorophenyl)piperazin-1-yl]{4-{[7-(trifluoromethyl)quinolin-4-yl]amino}phenyl}methanone]",242 to 242.9,33.5 ± 1.23,27.3 ± 3.16,21.1 ± 1.62,28.5 ± 7.81,> 100,73.5,86.81±4.81,89.66±6.31,78.02±11.06,62.61±12.04,52.36±1.02,59.17±1.33,> 100,71.49±1.03,65.78±1.15,63.22±11.25,51.32±5.29,> 100,,inhibition at 12.5 µM [1]: 40.2%
"COc1ccccc1OCCNC(=O)c1ccc(Nc2ccnc3ccccc23)cc1 [Compound G19, N-{2-(2-Methoxyphenoxy)ethyl}-4-(quinolin-4-ylamino)benzamide]",319.5 to 320.2,131 ± 11.1,132 ± 4.75,138 ± 9.95,122 ± 5.08,< 10,82.3,103.14±6.28,103.54±9.29,103.11±7.45,97.97±3.74,97.40±3.36,112.18±7.45,> 100,90.89±5.31,93.23±8.08,102.17±1.95,111.55±9.83,> 100,13.9,
"COc1ccccc1OCCNC(=O)c1ccc(Nc2ccnc3c(C)cccc23)cc1 [Compound G20, N-[2-(2-Methoxyphenoxy)ethyl]-4-[(8-methylquinolin-4-yl)amino]benzamide]",150.2 to 151.7,72 ± 6.36,28.6 ± 1.61,30.9 ± 0.88,31.1 ± 0.49,> 100,,96.66±8.01,91.48±3.65,94.07±9.07,87.46±21.36,80.21±1.35,60.29±0.35,> 100,45.97±9.1,8.61±0.42,8.88±0.51,8.66±0.17,< 10,,"inhibition at 12.5 µM [1]: 6.69%; inhibition at 6 µM ([3]; MDCK, concentration 6 µM, read-out: Plaque Inhibition Assay (A/WSN/33, H1N1) Inhibition Rate): 74.3%"
"COc1ccccc1OCCNC(=O)c1ccc(Nc2ccnc3cc(OC(F)(F)F)ccc23)cc1 [Compound G22, N-[2-(2-Methoxyphenoxy)ethyl]-4-{[7-(trifluoromethoxy)quinolin-4-yl]amino}benzamide]",229.5 to 230.7,112 ± 6.15,108 ± 8.75,106 ± 5.94,97.4 ± 10.2,< 10,20,117.25±6.52,103.91±6.77,91.65±2.90,89.97±4.08,88.83±5.80,86.07±5.65,> 100,95.78±2.47,99.56±3.73,104.22±9.18,118.12±6.49,> 100,43.9,
"COc1ccccc1OCCNC(=O)c1ccc(Nc2ccnc3cc([N+](=O)[O-])ccc23)cc1 [Compound G23, N-[2-(2-Methoxyphenoxy)ethyl]-4-[(7-nitroquinolin-4-yl)amino]benzamide]",217 to 218.5,146 ± 3.38,143 ± 6.11,119.8 ± 0.68,119 ± 7.71,< 10,77.9,93.57±3.31,96.34±4.31,95.29±3.05,89.02±3.47,96.62±7.74,88.11±4.02,> 100,101.22±6.39,106.22±9.35,100.33±3.53,91.28±3.45,> 100,56.6,
"COc1ccccc1OCCNC(=O)c1ccc(Nc2ccnc3ccc(C(F)(F)F)cc23)cc1 [Compound G26, N-[2-(2-Methoxyphenoxy)ethyl]-4-{[6-(trifluoromethyl)quinolin-4-yl]amino}benzamide]",225.3 to 227.3,15.7 ± 1.06,16.8 ± 2.11,36.8 ± 1.79,49.7 ± 6.09,> 100,< 10,104.54±2.55,83.92±2.40,78.70±2.98,74.64±5.24,72.10±1.56,70.01±9.07,> 100,103.03±1.26,105.52±6.56,122.08±7.85,133.91±11.97,> 100,22.6,
"NC12CC3CC(CC(C3)C1)C2 [amantadine, reference compound]",,,,,,,,,,,,,,,,,,,,,IC50 (A/HK/68 (H3N2)): 2220 ± 570 nM; IC50 (A/PR/8 (H1N1)): 64.2 ± 7.21 µM; IC50 ([3]; MDCK cells): > 100 µM; IC50 (influenza B virus): > 100 µM
